The source of these data is BindingDB's records for doi:10.1021/jm9603072 (University of Paris, 1997).

Usually Ki stands for the equilibrium dissociation constant of an inhibitor or competing ligand from its target. Low readings indicate a stronger hold on the target, high ones a looser hold on the target.

The target of the assay is Gastrin/cholecystokinin type B receptor (Cavia porcellus). The assay can be described thus: Inhibition of [3H]pCCK-8 binding to Guinea pig cortex membrane Cholecystokinin type B receptor.

The compound `C[C@]1(Cc2c[nH]c3ccccc23)NC(=O)CCCCSSCC[C@@H](C(=O)N[C@@H](CC(=O)O)C(=O)N[C@@H](Cc2ccccc2)C(N)=O)NC1=O` [N-(1-Carbamoyl-2-phenyl-ethyl)-3-{[(5R,8R)-8-(1H-indol-3-ylmethyl)-8-methyl-7,10-dioxo-1,2-dithia-6,9-diaza-cyclotetradecane-5-carbonyl]-amino}-succinamic acid] registered a Ki of 51 nM. This counts as double-digit nanomolar.
